Square brackets hold non-standard residues; d marks the D form. Peptide text beside a SMILES is read from it. * marks the point of attachment. Bz = O=C(c1ccccc1)*
What was measured:
CYP 3A4 = CYP 3A4 (Homo sapiens, UniProt P08684); experiment: Cytochrome P450 oxidase (CYP) inhibition, fluorescent probe; assay type: in vitro ADME; settings: recombinant human CYP isozyme 3A4
From the text: Cytochrome P450 enzymes (CYPs) constitute a superfamily of heme proteins involved in the metabolism of endogenous and exogenous compounds in living organisms. In particular, a number of CYP isozymes are important in the oxidative metabolism of drug molecules. Interactions with these enzymes could lead to altered pharmacokinetic parameters, such as half life, Cmax, or AUC of other co-administered drug molecules. To reduce this kind of interaction in vitro screening of drug candidates for inhibition of drug-metabolizing CYPs has been carried out.
Cytochrome P oxidase (CYP) Inhibition: The compound solution is added to a mixture of recombinant human CYP isozymes, NADPH regenerating solution, buffer, and “probe” compounds for each isozyme. The degree of reduction in the rate of metabolism of the probe to a fluorescent metabolite is an indication of the potential CYP inhibition of the test compound. The CYP 450 isozyme tested is 3A4.

[1] = PAMPA-BBB permeability test (brain lipid artificial membrane); assay type: in vitro ADME; settings: brain lipid 20% in dodecane; pH 7.4 buffer; 14 hr diffusion
From the text: The compounds of the invention show desirable pharmacokinetic profiles as evidenced from data obtained when testing the permeability of the compounds across a synthetic biomimetic membrane that resembles the blood brain barrier (PAMPA-BBB) and the compounds ability to inhibit the activity of cytochrome P 450 oxidase isozyme 3A4. Normally it is desirous to avoid having drugs targeting the cardiovascular systems and other non-CNS ailments such as osteoporosis being less able to cross the blood brain barrier and thus penetrate into the central nervous system.
Permeability test: Compounds in DMSO solution are added to pH 7.4 buffer in a 96 well plate (“donor”). The buffer is placed in contact with a 96 well filter plate in which the pours have been filled with an artificial membrane (2% phosphatidyl choline in dodecane). The top wells of the filter plate are filled with aqueous buffer (“acceptor”). Compound molecules diffuse into the artificial membrane and then into the acceptor buffer. After a 14 hr diffusion experiment, the donor and acceptor wells are measured on a UV plate reader and compared to a standard. The experiment is termed “PAMPA”. Permeability-BBB: The PAMPA experiment above is repeated using brain lipid (20% in dodecane) to provide a prediction of blood-brain barrier permeation by passive diffusion.

[2] = tested on: calcium-induced arrhythmias; experiment: Calcium-induced arrhythmia model (time lag to conduction block after CaCl2 infusion); assay type: in vivo, mouse; settings: male NMRI mice; 1 nmol/kg i.v. 3 min before CaCl2 infusion; (tarr test compound − tarr vehicle)×100/tarr vehicle
Description: Peptides suitable for administration to cardiac cells can be identified in an in vivo model of calcium-induced arrhythmias according to the model of Lynch et al. (1981) J Cardiovasc. Pharmacol. 3:49-60. Mice (25-30 g) are anaesthetized with a neurolept anaesthetic combination and an i.v. cannula is inserted into the tail vein. A lead II ECG signal is recorded continuously by positioning a stainless steel ECG electrodes on the right forelimb and on the left hind limb. The ground electrode is placed on the right hind limb. The signal is amplified (×5.000-10.000) and filtered (0.1-150 Hz) via a Hugo Sachs Electronic model 689 ECG module. The analogue signal is digitized via a 12 bit data acquisition board (Data Translation model DT321) and sampled at 1000 Hz using the Notocord HEM 3.1 software for Windows NT. After a 10-minute equilibration period, the test sample of compound is injected into the tail vein. Mice pre-treated with buffer are tested as a measure of the control level in untreated animals. The injection volume is 100 μl in all experiments.
Infusion of CaCl2 (30 mg/ml, 0.1 ml/min≈100 mg/kg/min (calcium chloride-2-hydrate, Riedel-de Haën, Germany)) is started 3 min after i.v. administration of drug or vehicle. The time lag to onset of 2nd degree AV-block is determined as the time from the start of CaCl2 infusion until the first arrhythmic event occurs. An event of 2nd degree AV-block is defined as intermittent failure of the AV conduction characterised by a P-wave without the concomitant QRS complex.
Responses are expressed relative to the time until 2nd degree AV-block occurred in vehicle treated mice. The maximal effect of compounds (e.g., N- or C-terminally modified peptides of the invention, AAP, AAP10 or controls) is determined. […] Preferably, the compounds provide at least about 40% of the activity of AAP, for example at least about 50% of the activity of AAP, such as about 60% of the activity of AAP, for example at least about 70% of the activity of AAP, such as at least about 80% of the activity of AAP, for example at least about 90% of the activity of AAP, for example at least about substantially the same activity of AAP, such as about 110% of the activity of AAP, for example at least about 120% of the activity of AAP, such as at least about 130% of the activity of AAP, for example at least about 140% of the activity of AAP, such as about 150% of the activity of AAP, for example at least about 160% of the activity of AAP, such as at least about 170% of the activity of AAP, for example at least about 180% of the activity of AAP, preferably at least about 190% of the activity of AAP, more preferably at least about 200 or greater % of the activity of AAP (i.e., the compounds show time lags of approximately the same duration as induced by AAP).
The anti-arrhythmic effect of the present compounds was tested in a model of calcium-induced arrhythmias according to the model of Lynch et al., J. Cardiovasc. Pharmacol. (1981), 3: 49-60. Male NMRI mice (25-30 grams; Bomholdtgaard, L I. Skendsved, Denmark) were anesthetized with a neurolept anesthetic combination (Hynorm® (fentanyl citrate 0.315 mg/mL and fuanisone 10 mg/mL) and midazolam at 5 mg/mL. Commercial solutions of Hynorm® and midazolam were diluted 1:1 in distilled water, and one part Hynorm® was mixed with one part diluted midazolam. Anesthesia is induced by s.c. administration of this solution in a dose of 50-75 μL/10 gram mouse.
An intravenous cannula was inserted into the tail vein. The lead II ECG signal was recorded continuously by positioning of stainless steel ECG electrodes on the right forelimb and on the left hind limb. The ground electrode was placed on the right hind limb. The signal was amplified (×5.000-10.000) and filtered (0.1-150 Hz) via a Hugo Sachs Electronic model 689 ECG module. […]

CYP 3A4, sequence (P08684 whole entry): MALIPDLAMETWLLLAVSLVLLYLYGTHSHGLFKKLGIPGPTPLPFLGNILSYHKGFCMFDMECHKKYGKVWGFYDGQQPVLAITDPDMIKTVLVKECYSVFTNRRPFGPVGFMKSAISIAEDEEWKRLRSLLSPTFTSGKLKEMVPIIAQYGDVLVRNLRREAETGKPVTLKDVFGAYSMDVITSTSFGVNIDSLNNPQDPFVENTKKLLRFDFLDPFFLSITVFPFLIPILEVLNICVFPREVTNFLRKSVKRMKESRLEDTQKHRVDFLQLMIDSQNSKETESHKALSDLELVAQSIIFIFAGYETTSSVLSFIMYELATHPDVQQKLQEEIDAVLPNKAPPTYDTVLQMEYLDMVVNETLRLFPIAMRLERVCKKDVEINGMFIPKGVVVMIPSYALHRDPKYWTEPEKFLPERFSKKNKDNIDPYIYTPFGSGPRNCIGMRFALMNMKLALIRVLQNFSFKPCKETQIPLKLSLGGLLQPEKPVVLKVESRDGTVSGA

Molecule | CYP450 Inhibition at 3 μM (% Inhibition) CYP 3A4 (CYP 3A4) | PAMPA-BBB [1] | % response (increase of time lag to onset of arrhythmias relative to vehicle) [2] [%]
COCC(=O)N[C@@H](CC(N)=O)C(=O)N[C@@H](Cc1ccc(O)cc1)C(N)=O [Compound 16, (Methoxyacetyl)-Asn-Tyr-NH2] | <15 % Inhibition | 0 10^−6 cm/s | –
COc1ccc(CNC(=O)C[C@H](N)C(=O)N[C@H](C)C(=O)O)cc1 [WO2004/048400 80, H-Asn(4-methoxybenzyl)-DAla-OH, reference compound] | 15–25 % Inhibition | – | –
NC(=O)C[C@H](NC(=O)CS)C(=O)N[C@@H](Cc1ccc(O)cc1)C(N)=O [Compound 7, N-(thiohydroxyacteyl)-Asn-Tyr-NH2] | <15 % Inhibition | 0 10^−6 cm/s | –
NC(=O)CNC(=O)[C@H](CC(N)=O)NC(=O)Cc1cc(=O)oc2cc(O)ccc12 [Compound 1, N-(7-hydroxycoumarin-4-acetyl)-Asn-Gly-NH2] | – | – | 20.9
N[C@H](CCCCNC(=O)c1ccccc1)C(=O)NCC(=O)O [WO2004/048400 23, H-DLys(benzoyl)-G-OH, reference compound] (H-[dK](Bz)-Gly-OH) | 15–25 % Inhibition | – | –
NCC(=O)N[C@@H](CC(N)=O)C(=O)NCc1ccc2ccc3cccc4ccc1c2c34 [Compound 12, H-Gly-Asn-NH(pyrenylmethyl)] | <15 % Inhibition | 0 10^−6 cm/s | 38.0
NC(=O)[C@H](Cc1ccc(O)cc1)NC(=O)CNC(=O)CO [Compound 2, N-(hydroxyacetyl)-Gly-Tyr-NH2] | – | – | 48.7
CC(=O)OCC(=O)N[C@@H](CC(N)=O)C(=O)N[C@@H](Cc1ccc(O)cc1)C(N)=O [Compound 8] | <15 % Inhibition | 0 10^−6 cm/s | 16.5
N[C@@H](CCCCNC(=O)c1ccc([N+](=O)[O-])cc1)C(=O)NCC(=O)O [WO2004/048400 7, H-K(4-nitrobenzoyl)-G-OH, reference compound] | 15–25 % Inhibition | – | –
H-Gly-Asn-NH(4-nitrophenyl) [Compound 10] | <15 % Inhibition | 0 10^−6 cm/s | 38.0
CN(CC(=O)O)C(=O)[C@@H](N)CCCCNC(=O)c1ccc([N+](=O)[O-])cc1 [WO2004/048400 8, H-K(4-nitrobenzoyl)-Sar-OH, reference compound] | 15–25 % Inhibition | – | –
NC(=O)C[C@@H](NC(=O)Cc1cc(=O)oc2cc(O)ccc12)C(=O)NCC(=O)O [Compound 15, N-(7-hydroxycoumarin-4-acetyl)-D-Asn-Gly-OH] | – | – | 28.5

— patent publication US7749969B2, “N- or C- terminally modified small peptides” (Zealand Pharma A/S, priority 2005, dated 2010)
